US20240199587A1, “HETEROCYCLIC COMPOUNDS” (Hoffmann-La Roche Inc., priority 2021, published 2024)

Target: T1, MAGL (Homo sapiens, UniProt Q99685)
T1 sequence (Q99685 1-303): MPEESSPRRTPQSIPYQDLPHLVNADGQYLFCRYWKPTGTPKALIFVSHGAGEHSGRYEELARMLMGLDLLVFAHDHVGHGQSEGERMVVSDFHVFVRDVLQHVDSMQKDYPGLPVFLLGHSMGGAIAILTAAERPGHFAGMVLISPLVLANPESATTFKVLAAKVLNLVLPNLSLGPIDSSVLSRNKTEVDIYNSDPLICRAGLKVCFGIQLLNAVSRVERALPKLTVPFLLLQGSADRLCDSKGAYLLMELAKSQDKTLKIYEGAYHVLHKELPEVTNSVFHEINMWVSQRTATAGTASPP
Assay: 2-AG assay (MAGL inhibitory activity, hydrolysis of 2-arachidonoylglycerol to arachidonic acid followed by mass spectrometry)
Type: biochemical
Conditions: 8 μM 2-arachidonoylglycerol, 15 min pre-incubation, 30 min incubation at RT, RapidFire MS readout
Summary of the method: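 Human MAGL ([…] final) pre-incubated 15 min at RT with compound in 50 mM TRIS, 1 mM EDTA, 0.01% Tween-20, 2.5% DMSO; 8 μM 2-AG then added for 30 min at RT. Acetonitrile quench with d8-arachidonic acid; arachidonic acid measured by RapidFire SPE–MS/MS, activity from arachidonic acid/d8 ratio.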

First: O=C(N1CC2(CC(n3cnc(C4CC4)n3)C2)C1)N1CC2(C1)CN(S(=O)(=O)CC1CC1)C2 [Example 296, [2-(cyclopropylmethylsulfonyl)-2,6-diazaspiro[3.3]heptan-6-yl]-[6-(3-cyclopropyl-1,2,4-triazol-1-yl)-2-azaspiro[3.3]heptan-2-yl]methanone]
Second: O=C(N1CC2(CC(n3cnc(C4CC4)n3)C2)C1)N1CC2(C1)CN(S(=O)(=O)c1c(F)cc(F)cc1F)C2 [Example 242, [6-(3-cyclopropyl-1,2,4-triazol-1-yl)-2-azaspiro[3.3]heptan-2-yl]-[2-(2,4,6-trifluorophenyl)sulfonyl-2,6-diazaspiro[3.3]heptan-6-yl]methanone]
The IC50 of the first is 10-fold higher: 91.5 nM for the first, 8.8 nM for the second.

Going from `CS(=N)(=O)c1cc(F)ccc1CC1CC2(C1)CN(C(=O)N1CC3(CC(n4cnc(C5(O)CC5)n4)C3)C1)C2` (centres unmarked) [Example 354, [6-[[4-fluoro-2-(methylsulfonimidoyl)phenyl]methyl]-2-azaspiro[3.3]heptan-2-yl]-[6-[3-(1-hydroxycyclopropyl)-1,2,4-triazol-1-yl]-2-azaspiro[3.3]heptan-2-yl]methanone] to `O=C(N1CC2(CC(Cc3ncc(Cl)cc3F)C2)C1)N1CC2(CC(n3cnc(C4(O)CC4)n3)C2)C1` [Example 367, [6-[(5-chloro-3-fluoro-2-pyridyl)methyl]-2-azaspiro[3.3]heptan-2-yl]-[6-[3-(1-hydroxycyclopropyl)-1,2,4-triazol-1-yl]-2-azaspiro[3.3]heptan-2-yl]methanone], the IC50 falls from 19.2 nM to 2.38 nM (8.1-fold). The second is the more potent here.

First: O=C(N1CC2(CC(Oc3cc(C(F)(F)F)ncn3)C2)C1)N1CC2(CC(n3cnc(C4CC4)n3)C2)C1 [Example 57, [6-(3-cyclopropyl-1,2,4-triazol-1-yl)-2-azaspiro[3.3]heptan-2-yl]-[6-[6-(trifluoromethyl)pyrimidin-4-yl]oxy-2-azaspiro[3.3]heptan-2-yl]methanone]
Second: O=C(N1CC2(CC(Oc3cnc(C(F)(F)F)nc3)C2)C1)N1CC2(CC(n3cnc(C4CC4)n3)C2)C1 [Example 61, (6-(3-cyclopropyl-1H-1,2,4-triazol-1-yl)-2-azaspiro[3.3]heptan-2-yl)(6-((2-(trifluoromethyl)pyrimidin-5-yl)oxy)-2-azaspiro[3.3]heptan-2-yl)methanone]
The IC50 of the first is 2.2-fold lower: 2.5 nM for the first, 5.4 nM for the second.

Going from `O=C(N1CC2(CC(Cc3ccc(F)cc3F)C2)C1)N1CC2(CC(c3ccc(S(=O)(=O)C(F)(F)F)cc3)C2)C1` [Example 345, [6-[(2,4-difluorophenyl)methyl]-2-azaspiro[3.3]heptan-2-yl]-[6-[4-(trifluoromethylsulfonyl)phenyl]-2-azaspiro[3.3]heptan-2-yl]methanone] to `CS(=O)(=O)c1cccc(CC2CC3(C2)CN(C(=O)N2CC4(CC(c5ccc(C(F)(F)F)nc5)C4)C2)C3)c1` [Example 529, [6-[(3-methylsulfonylphenyl)methyl]-2-azaspiro[3.3]heptan-2-yl]-[6-[6-(trifluoromethyl)-3-pyridyl]-2-azaspiro[3.3]heptan-2-yl]methanone], the IC50 rises from 28.9 nM to 189 nM (6.5-fold). The first is the more potent here.

`O=C(N1CC2(CC(c3ccc(C(F)(F)F)nc3)C2)C1)N1CC2(CN(Cc3ccc(S(=O)(=O)C(F)(F)F)cc3)C2)C1` [Example 526, [6-[6-(trifluoromethyl)-3-pyridyl]-2-azaspiro[3.3]heptan-2-yl]-[6-[[4-(trifluoromethylsulfonyl)phenyl]methyl]-2,6-diazaspiro[3.3]heptan-2-yl]methanone] and `O=C(N1CC2(CCC(Cc3ccc(OC(F)F)nc3)CC2)C1)N1CC2(CC(c3ccc(C(F)(F)F)nc3)C2)C1` [Example 521, [7-[[6-(difluoromethoxy)-3-pyridyl]methyl]-2-azaspiro[3.5]nonan-2-yl]-[6-[6-(trifluoromethyl)-3-pyridyl]-2-azaspiro[3.3]heptan-2-yl]methanone] are within 1.5-fold of each other in IC50: 354 nM for the first, 379 nM for the second.

Compared with `O=C(c1cnc(OCC2(C(F)(F)F)CC2)nc1)N1CC2(CC(n3cnc(C4CC4)n3)C2)C1` [Example 31, [6-(3-cyclopropyl-1,2,4-triazol-1-yl)-2-azaspiro[3.3]heptan-2-yl]-[2-[[1-(trifluoromethyl)cyclo-propyl]methoxy]pyrimidin-5-yl] methanone], `O=C(N1CC2(CC(n3cnc(C4CC4)n3)C2)C1)N1CC2(C1)CN(S(=O)(=O)c1cnccc1C(F)(F)F)C2` [Example 263, [6-(3-cyclopropyl-1,2,4-triazol-1-yl)-2-azaspiro[3.3]heptan-2-yl]-[2-[[4-(trifluoromethyl)-3-pyridyl]sulfonyl]-2,6-diazaspiro[3.3]heptan-6-yl]methanone] is 13-fold lower in IC50: 353 nM for the first, 27.2 nM for the second.

Going from `O=C(N1CC(OCc2ccc(Cl)cc2F)C1)N1CC2(CC(n3cnc(C4CC4)c3)C2)C1` [Example 108, [3-[(4-chloro-2-fluoro-phenyl)methoxy]azetidin-1-yl]-[6-(4-cyclopropylimidazol-1-yl)-2-azaspiro[3.3]heptan-2-yl]methanone] to `O=C(N1CC(c2ccc(C3(C(F)(F)F)CC3)cc2)C1)N1CC2(CC(n3cnc(C4CC4)c3)C2)C1` [Example 48, [6-(4-cyclopropylimidazol-1-yl)-2-azaspiro[3.3]heptan-2-yl]-[3-[4-[1-(trifluoromethyl)cyclo-propyl]phenyl]azetidin-1-yl]methanone], the IC50 falls from 25 nM to 0.2 nM (120-fold).

First: CS(=O)(=O)c1ccc(CC2CC3(C2)CN(C(=O)N2CC4(CC(n5cnc(C6CC6)n5)C4)C2)C3)c(F)c1 [Example 483, [6-(3-cyclopropyl-1,2,4-triazol-1-yl)-2-azaspiro[3.3]heptan-2-yl]-[6-[(2-fluoro-4-methylsulfonyl-phenyl)methyl]-2-azaspiro[3.3]heptan-2-yl]methanone]
Second: O=C(N1CC2(CC(Cc3ccc(F)cc3F)C2)C1)N1CC2(CC(n3cnc(C4CCC4)n3)C2)C1 [Example 184, [6-(3-cyclobutyl-1,2,4-triazol-1-yl)-2-azaspiro[3.3]heptan-2-yl]-[6-[(2,4-difluorophenyl)methyl]-2-azaspiro[3.3]heptan-2-yl]methanone]
The IC50 of the first is 1.6-fold higher: 0.16 nM for the first, 0.1 nM for the second. The second is the more potent here.

Going from `O=C(N1CC2(CC(n3cnc(C4CC4)n3)C2)C1)N1CC2(C1)CN(S(=O)(=O)c1cccc(OC(F)(F)F)c1)C2` [Example 233, [6-(3-cyclopropyl-1,2,4-triazol-1-yl)-2-azaspiro[3.3]heptan-2-yl]-[2-[3-(trifluoromethoxy)phenyl]sulfonyl-2,6-diazaspiro[3.3]heptan-6-yl]methanone] to `CNC(=O)c1ccccc1S(=O)(=O)N1CC2(CN(C(=O)N3CC4(CC(n5cnc(C6CC6)n5)C4)C3)C2)C1` [Example 334], the IC50 rises from 5.3 nM to 993 nM (190-fold). The first is the more potent here.

First: N#Cc1cc(F)ccc1O[C@H]1C[C@@H]2CN(C(=O)N3CC4(CC(n5cnc(C6CC6)n5)C4)C3)C[C@@H]2C1 [Example 129, 5-fluoro-2-[[rac-(3aS,6aR)-2-[6-(3-cyclopropyl-1,2,4-triazol-1-yl)-2-azaspiro[3.3]heptane-2-carbonyl]-3,3a,4,5,6,6a-hexahydro-1H-cyclopenta[c]pyrrol-5-yl]oxy]benzonitrile]
Second: COC(=O)C(C)(C)Cc1cccc(OC2CN(C(=O)N3CC4(CC(n5cnc(C6CC6)n5)C4)C3)C2)c1 [Example 194, methyl 3-[3-[1-[6-(3-cyclopropyl-1,2,4-triazol-1-yl)-2-azaspiro[3.3]heptane-2-carbonyl]azetidin-3-yl]oxyphenyl]-2,2-dimethyl-propanoate]
The IC50 of the first is 240-fold higher: 72.2 nM for the first, 0.3 nM for the second.

Going from `CCc1cn(C2CC3(C2)CN(C(=O)c2ccc(-c4noc(C(C)(C)C)n4)cc2)C3)cn1` [Example 157, [4-(5-tert-butyl-1,2,4-oxadiazol-3-yl)phenyl]-[6-(4-ethylimidazol-1-yl)-2-azaspiro[3.3]heptan-2-yl]methanone] to `O=C(N1CCC([C@@H](c2ccc(F)cc2)c2nc(C3CC3)no2)CC1)N1CC2(CC(n3cnc(C4CC4)n3)C2)C1` [Example 227, [4-[(S)-(3-cyclopropyl-1,2,4-oxadiazol-5-yl)-(4-fluorophenyl)methyl]-1-piperidyl]-[6-(3-cyclopropyl-1,2,4-triazol-1-yl)-2-azaspiro[3.3]heptan-2-yl]methanone], the IC50 falls from 43.7 nM to 3.8 nM (12-fold).

Compared with `O=C(N1CC2(CC(Cc3ccc(S(=O)(=O)C4CC4)cc3)C2)C1)N1CC2(CC(n3cnc(C4(O)CC4)n3)C2)C1` [Example 364, [6-[(4-cyclopropylsulfonylphenyl)methyl]-2-azaspiro[3.3]heptan-2-yl]-[6-[3-(1-hydroxycyclopropyl)-1,2,4-triazol-1-yl]-2-azaspiro[3.3]heptan-2-yl]methanone], `CS(=N)(=O)c1cccc(CC2CC3(C2)CN(C(=O)N2CC4(CC(n5cnc(C(F)(F)F)n5)C4)C2)C3)c1` (centres unmarked) [Example 431, [6-[[3-(methylsulfonimidoyl)phenyl]methyl]-2-azaspiro[3.3]heptan-2-yl]-[6-[3-(trifluoromethyl)-1,2,4-triazol-1-yl]-2-azaspiro[3.3]heptan-2-yl]methanone] is 5.6-fold higher in IC50: 1.84 nM for the first, 10.3 nM for the second. The first is the more potent here.

Compared with `O=C(N1CC(OCc2ccc(S(=O)(=O)C(F)(F)F)cc2F)C1)N1CC2(CC(n3cnc(C4(O)CC4)n3)C2)C1` [Example 398, [3-[[2-fluoro-4-(trifluoromethylsulfonyl)phenyl]methoxy]azetidin-1-yl]-[6-[3-(1-hydroxycyclopropyl)-1,2,4-triazol-1-yl]-2-azaspiro[3.3]heptan-2-yl]methanone], `O=C(N1CC(C23CC(c4nnc(C5CC5)o4)(C2)C3)C1)N1CC2(CC(n3cnc(C4CC4)n3)C2)C1` [Example 436, [3-[3-(5-cyclopropyl-1,3,4-oxadiazol-2-yl)-1-bicyclo[1.1.1]pentanyl]azetidin-1-yl]-[6-(3-cyclopropyl-1,2,4-triazol-1-yl)-2-azaspiro[3.3]heptan-2-yl]methanone] is 3.5-fold lower in IC50: 34.8 nM for the first, 9.82 nM for the second.
